Assay results: patent US8691800B2, “Quinoline derivatives as antibacterial agents” (Janssen Pharmaceutica N.V., priority 2005, dated 2014)
Values after ≈ are worked out from the molar mass of the structure shown.

Experiments:
[1] = test system: Staphylococcus aureus (ATCC29213); assay: Microtitre plate assay, IC90 for bacterial growth; assay type: cell-based; conditions: 90% inhibitory concentration for bacterial growth, 24 hours at 37° C., resazurin; for IC90: Staphylococcus aureus, ATCC29213, 24 h, read-out: IC90 STA 29213
Method: (§1) The bacteria used in this study were grown overnight in flasks containing 100 ml Mueller-Hinton Broth (Becton Dickinson—cat. no. 275730) in sterile de-ionized water, with shaking, at 37° C. Stocks (0.5 ml/tube) were stored at 70° C. until use. Bacteria titrations were performed in microtiter plates and colony forming units (CFUs) were determined. In general, an inoculum level of approximately 100 CFUs was used for susceptibility testing.
(§2) Anti bacterial Susceptibility Testing: IC90 Determination
(§3) Flat-bottom, sterile 96-well plastic microtiter plates were filled with 180 μl of sterile deionized water, supplemented with 0.25% BSA. Subsequently, stock solutions (7.8× final test concentration) of compounds were added in 45 μl volumes in column 2. Serial five-fold dilutions (45 μl in 180 μl) were made directly in the microtiter plates from column 2 to reach column 11. Untreated control samples with (column 1) and without (column 12) inoculum were included in each microtiter plate. Depending on the bacteria type, approximately 10 to 60 CFU per well of bacteria inoculum (100 TCID50), in a volume of 100 μl in 2.8× Mueller-Hinton broth medium, was added to the rows A to H, except column 12. The same volume of broth medium without inoculum was added to column 12 in row A to H. The cultures were incubated at 37° C. for 24 hours under a normal atmosphere (incubator with open air valve and continuous ventilation). At the end of incubation, one day after inoculation, the bacterial growth was quantitated fluorometrically. Therefore resazurin (0.6 mg/ml) was added in a volume of 20 μl to all wells 3 hours after inoculation, and the plates were re-incubated overnight. A change in colour from blue to pink indicated the growth of bacteria. The fluorescence was read in a computer-controlled fluorometer (Cytofluor Biosearch) at an excitation wavelength of 530 nm and an emission wavelength of 590 nm. The % growth inhibition achieved by the compounds was calculated according to standard methods. The IC90 (expressed in μg/ml) was defined as the 90% inhibitory concentration for bacterial growth.

[2] = test system: Enterococcus faecalis (ATCC29212); assay: Microtitre plate assay, IC90 for bacterial growth; assay type: cell-based; conditions: for IC90: Enterococcus faecalis, ATCC29212, 90% inhibitory concentration for bacterial growth, read-out: IC90 EFA 29212
Method: as §1, §2, §3

[3] = test system: Streptococcus pyogens (ATCC8668); assay: Microtitre plate assay, IC90 for bacterial growth; assay type: cell-based; conditions: for IC90: Streptococcus, ATCC8668, 90% inhibitory concentration for bacterial growth, read-out: IC90 SPY 8668
Method: as §1, §2, §3

[4] = test system: methicilline resistant Staphylococcus aureus (MRSA) (a clinical isolate from the University of Antwerp); assay: Microtitre plate assay, IC90 for bacterial growth; assay type: cell-based; conditions: 90% inhibitory concentration for bacterial growth; for IC90: Staphylococcus aureus, MRSA, read-out: IC90 STA RMETHIC
Method: as §1, §2, §3

[5] = test system: Pseudomonas aeruginosa (ATCC27853); assay: Microtitre plate assay, IC90 for bacterial growth; assay type: cell-based; conditions: for IC90: Pseudomonas aeruginosa, ATCC27853, 90% inhibitory concentration for bacterial growth, read-out: IC90 PAE 27853
Method: as §1, §2, §3

[6] = test system: Enterococcus faecalis (ATCC14506); assay: Microtitre plate assay, IC90 for bacterial growth; assay type: cell-based; conditions: 90% inhibitory concentration for bacterial growth; for IC90: read-out: IC90 EFA 14506
Method: as §1, §2, §3

[7] = test system: Bacillus subtilis (ATCC43639); assay: Microtitre plate assay, IC90 for bacterial growth; assay type: cell-based; conditions: for IC90: Bacillus subtilis, ATCC43639, 90% inhibitory concentration for bacterial growth, read-out: IC90 BSU 43639; for IC90 BSU 43639: 90% inhibitory concentration for bacterial growth
Method: as §1, §2, §3

[8] = test system: Listeria monocytogenes (ATCC49594); assay: Microtitre plate assay, IC90 for bacterial growth; assay type: cell-based; conditions: for IC90: Listeria monocytogenes, ATCC49594, 90% inhibitory concentration for bacterial growth, read-out: IC90 LMO 49594
Method: as §1, §2, §3

[9] = test system: Staphylococcus aureus (ATCC25923); assay: Microtitre plate assay, IC90 for bacterial growth; assay type: cell-based; conditions: for IC90: Staphylococcus aureus, ATCC25923, 90% inhibitory concentration for bacterial growth, read-out: IC90 STA 25923
Method: as §1, §2, §3

[10] = test system: Streptococcus pneumoniae (ATCC6305); assay: Microtitre plate assay, IC90 for bacterial growth; assay type: cell-based; conditions: for IC90: Streptococcus pneumoniae, ATCC6305, 90% inhibitory concentration for bacterial growth, read-out: IC90 SPN 6305; for IC90 SPN 6305: 90% inhibitory concentration for bacterial growth
Method: as §1, §2, §3

[11] = test system: Staphylococcus aureus (ATCC43300); assay: Microtitre plate assay, IC90 for bacterial growth; assay type: cell-based; conditions: 90% inhibitory concentration for bacterial growth
Method: as §1, §2, §3

[12] = test system: Streptococcus mutans (ATCC33402); assay: Microtitre plate assay, IC90 for bacterial growth; assay type: cell-based
Method: as §1, §2, §3

[13] = test system: Escherichia coli (ATCC25922); assay: Microtitre plate assay, IC90 for bacterial growth; assay type: cell-based; conditions: 90% inhibitory concentration for bacterial growth, read-out: IC90 ECO 25922
Method: as §1, §2, §3

[14] = test system: Escherichia coli (ATCC1403); assay: Microtitre plate assay, IC90 for bacterial growth; assay type: cell-based
Method: as §1, §2, §3

[15] = test system: Escherichia coli (ATCC35218); assay: Microtitre plate assay, IC90 for bacterial growth; assay type: cell-based; conditions: 90% inhibitory concentration for bacterial growth
Method: as §1, §2, §3

[16] = 90% inhibitory concentration for bacterial growth

Row | melting point [°C] | IC90 [1] [µg/mL] | IC90 [2] [µg/mL] | IC90 [3] [µg/mL] | IC90 [5] [µg/mL] | IC90 [6] [µg/mL] | IC90 [7] [µg/mL] | IC90 [8] [µg/mL] | IC90 [9] [µg/mL] | IC90 [10] [µg/mL] | IC90 STA 43300 [11] [µg/mL] | IC90 BSU 43639 [7] [µg/mL] | IC90 SPN 6305 [10] [µg/mL] | SMILES | IC90 [4] [µg/mL] | further results
1 | 168 | 12.7 (≈ 25.1 µM) | 12.7 (≈ 25.1 µM) | 12.7 (≈ 25.1 µM) | 10 (≈ 19.8 µM) | 40 (≈ 79.1 µM) | 12.7 (≈ 25.1 µM) | 12.7 (≈ 25.1 µM) | 12.7 (≈ 25.1 µM) | 12.7 (≈ 25.1 µM) |  |  |  | COc1nc2ccc(Br)cc2cc1C(c1ccccc1)C1(C2=CC=CCC2)CCN(C)CO1 (single isomer, unassigned) [Compound 8] | 12.7 (≈ 25.1 µM) | 
2 | 189 | 12.8 (≈ 25.1 µM) | 12.8 (≈ 25.1 µM) | 12.8 (≈ 25.1 µM) | 12.8 (≈ 25.1 µM) | 12.8 (≈ 25.1 µM) | 12.8 (≈ 25.1 µM) | 12.8 (≈ 25.1 µM) | 12.8 (≈ 25.1 µM) | 12.8 (≈ 25.1 µM) |  |  |  | COc1nc2ccc(Cl)cc2cc1C(c1ccccc1)C1(c2cccc3ccccc23)CCN(C)CO1 (single isomer, unassigned) [Compound 14] | 12.8 (≈ 25.1 µM) | 
3 | 211 |  |  |  |  |  |  |  |  |  | 9.3 | 2.1 | 2.3 | COc1nc2ccc(Cl)cc2cc1C(c1ccccc1)C1(c2cccc3ccccc23)CC[N+](C)(C)CO1.[I-] (single isomer, unassigned) [Compound 15] |  | IC90 STA 29213 [1]: 1.86 µg/mL; IC90 SMU 33402 [12, 16]: 1.9 µg/mL; IC90 EFA 29212 [2, 16]: 2.1 µg/mL; IC90 SPY 8668 [3, 16]: 1.9 µg/mL; IC90 STA RMETHIC [4]: 1.9 µg/mL; IC90 [13]: 10.5 µg/mL; IC90 PAE 27853 [5, 16]: 9.3 µg/mL; IC90 EFA 14506 [6]: 2.1 µg/mL; IC90 ECO 1403 [14, 16]: 10.5 µg/mL; IC90 LMO 49594 [8, 16]: 2.1 µg/mL; IC90 ECO 35218 [15]: 41.6 µg/mL; IC90 STA 25923 [9, 16]: 2.1 µg/mL
4 | 195 | 1.9 | 2.6 | 1.9 | 10.5 | 2.1 |  | 1.7 | 1.9 |  | 41.6 | 10.5 | 5.2 | COc1nc2ccc(Cl)cc2cc1C(c1ccccc1)C1(c2cccc3ccccc23)CC[N+](C)(C)CO1.[I-] (single isomer, unassigned) [Compound 16] | 2.1 | IC90 ([12]; Streptococcus mutans, ATCC33402, 90% inhibitory concentration for bacterial growth, read-out: IC90 SMU 33402): 2.1 µg/mL; IC90 ([14]; Escherichia coli, ATCC1403, 90% inhibitory concentration for bacterial growth, read-out: IC90 ECO 1403): 13.2 µg/mL; IC90 ([15]; read-out: IC90 ECO 35218): 41.6 µg/mL
